Laboratory results: patent US9018216B2, “Solid forms of (R)-2-(5-(2-(3-ethylureido)-6-fluoro-7-(tetrahydrofuran-2-yl)-1H-benzo[d]imidazol-5-yl)pyrimidin-2-yl)propan-2-yl dihydrogen phosphate and salts thereof” (priority 2012, dated 2015)

Assays:
[1] = system: Staphylococcus aureus ATCC 29213; assay: microbe, parasite or virus in culture; format: cell-based; details: Staphylococcus aureus, ATCC29213, Staphylococcus aureus ATCC 29213; Protocol 1; read-out: MIC
[2] = Stability of the solid forms (net increase in total impurities at 40 C/30% RH); format: physicochemical; details: 15 days
[3] = system: M. tuberculosis ATCC 35801 (strain Erdman); assay: Mouse M. tuberculosis (Erdman) 28 day lung infection model; format: in vivo, M. tuberculosis; host Balb/c mice; details: 100 mg/kg QD, 28 days

Row | SMILES | MIC [1] | Net % increase in total impurities [2] | Average Lung Burden ([3]; Table 23a) | Log Reduction vs. Early Control ([3]; Table 23a) | Log Reduction vs. Late Control ([3]; Table 23a) | Log Reduction vs. Early Control ([3]; Table 23b) | Log Reduction vs. Late Control ([3]; Table 23b) | Median Lung Burden ([3]; Table 23b)
1 | CCNC(=O)Nc1nc2cc(-c3cnc(C(C)(C)OP(=O)([O-])[O-])nc3)c(F)c([C@H]3CCCO3)c2[nH]1.[Na+].[Na+] [Amorphous di-Na salt, disodium (R)-2-(5-(2-(3-ethylureido)-6-fluoro-7-(tetrahydrofuran-2-yl)-1H-benzo[d]imidazol-5-yl)pyrimidin-2-yl)propan-2-yl phosphate] | 4 µg/mL | 1.74% | – | – | – | – | – | –
2 | COc1c(N2C[C@@H]3CCCN[C@@H]3C2)c(F)cc2c(=O)c(C(=O)O)cn(C3CC3)c12 [Moxifloxacin, reference compound] | – | – | 2.94 Log cfu/lungs | 2.04 Log | 2.26 Log | 2.04 Log | 1.42 Log | 2.94 Log cfu/lungs
